Laboratory results from ChEMBL document CHEMBL1156093, “Synthesis and biological activity of dialkylphosphocholines” (Bioorg Med Chem Lett, 2009).
Values after ≈ are worked out from the molar mass of the structure shown.

Legend:
[1] = system: Candida albicans; assay: Antifungal activity against Candida albicans; type: functional
[2] = system: Acanthamoeba lugdunensis; assay: Antiprotozoal activity against Acanthamoeba lugdunensis; type: functional
[3] = system: HeLa; assay: Cytotoxicity against human HeLa cells; type: functional, cell-based
[4] = system: HFL1; assay: Cytotoxicity against human HFL1 cells; type: cell-based

**Q.** What does the source list for `CCCCCCCCCCCC[N+](C)(C)CCCCCCOP(=O)([O-])OCCCCCCCCCC`?
**A.** MFC [1]: 34.8 µM (≈ 18.6 µg/mL); MTC [2]: >400 µM

**Q.** With `CCCCCCCCCCCC[N+](C)(C)CCOP(=O)([O-])OCCCCCCCCCC` as the compound, how does the IC50 [3] read?
**A.** 118 µM

**Q.** And the MFC [1]?
**A.** 19.3 µM (≈ 9.22 µg/mL)

**Q.** And the IC50 [4]?
**A.** 43.8 µM

**Q.** And the MTC [2]?
**A.** >400 µM

**Q.** Which results are given for `CCCCCCCCCCCCCCCCCCOP(=O)([O-])OCC[N+](C)(C)CCCC`?
**A.** IC50 [3]: 161 µM; MFC [1]: 19.3 µM (≈ 9.22 µg/mL); IC50 [4]: 113 µM; MTC [2]: >400 µM

**Q.** Which results are given for `CCCCCCCCCCCC[N+](C)(C)CCCCCCCCCCOP(=O)([O-])OCCCCCCCCCC`?
**A.** MFC [1]: 8100 µM (≈ 4780 µg/mL); MTC [2]: >400 µM

**Q.** Which results are given for `CCCCCCCCCC[N+](C)(C)CC[N+](C)(C)CCCCCCCCCC.[Br-].[Br-]`?
**A.** MFC [1]: 17.5 µM; MTC [2]: 200 µM

**Q.** What does the source list for `CCCCCCCCCCCCCCCCCC[N+](C)(C)CCOP(=O)([O-])OCCCC`?
**A.** MFC [1]: 9.7 µM (≈ 4.63 µg/mL); MTC [2]: >400 µM

**Q.** What does the source list for `CCCCCCCCCCCCCCCCOP(=O)([O-])OCC[N+](C)(C)C` [MILTEFOSINE]?
**A.** IC50 [3]: 129 µM; MFC [1]: 4 µM (≈ 1.63 µg/mL); IC50 [4]: 203 µM; MTC [2]: 400 µM

**Q.** Which results are given for `CCCCCCCCCCCCCCCC[N+](C)(C)CCOP(=O)([O-])OCCCCCC`?
**A.** IC50 [3]: 170 µM; MFC [1]: 19.3 µM (≈ 9.22 µg/mL); IC50 [4]: 110 µM; MTC [2]: >400 µM

**Q.** Which results are given for `CCCCCCCCCCCC[N+](C)(C)CCCCOP(=O)([O-])OCCCCCCCCCC`?
**A.** IC50 [3]: 148 µM; MFC [1]: 18.6 µM (≈ 9.41 µg/mL); IC50 [4]: 94.6 µM; MTC [2]: 200 µM

**Q.** Which MFC [1] does the source give for `CCCCCCCCCCCCCCOP(=O)([O-])OCC[N+](C)(C)CCCCCCCC` here?
**A.** 19.3 µM (≈ 9.22 µg/mL)

**Q.** What about the MTC [2] of the same compound?
**A.** >400 µM

**Q.** `CCCCCCCCCCCCCCCCOP(=O)([O-])OCC[N+](C)(C)CCCCCC` was tested. Which MFC [1] did it give?
**A.** 77.4 µM (≈ 37 µg/mL)

**Q.** And the MTC [2]?
**A.** >400 µM

**Q.** Which IC50 [3] does the source give for `CCCCCCCCCCCCCCCCCCCCOP(=O)([O-])OCC[N+](C)(C)CC` here?
**A.** 20.3 µM

**Q.** What about the MFC [1] of the same compound?
**A.** 619 µM (≈ 296 µg/mL)

**Q.** What about the IC50 [4] of the same compound?
**A.** 27.2 µM

**Q.** And the MTC [2]?
**A.** >400 µM

**Q.** How did the MFC [1] turn out when `CCCCCCCCCCOP(=O)([O-])OCC[N+](C)(C)CCCCCCCCCC` was run?
**A.** 20.5 µM (≈ 9.22 µg/mL)

**Q.** What about the MTC [2] of the same compound?
**A.** 25 µM

**Q.** `CCCCCCCCCCCCOP(=O)([O-])OCC[N+](C)(C)CCCCCCCCCC` was tested. Which IC50 [3] did it give?
**A.** 131 µM

**Q.** And the MFC [1]?
**A.** 9.7 µM (≈ 4.63 µg/mL)

**Q.** What about the IC50 [4] of the same compound?
**A.** 58.8 µM

**Q.** What about the MTC [2] of the same compound?
**A.** >400 µM

**Q.** What does the source list for `CCCCCCCCCCCCCC[N+](C)(C)CCOP(=O)([O-])OCCCCCCCC`?
**A.** MFC [1]: 9.7 µM (≈ 4.63 µg/mL); MTC [2]: >400 µM

**Q.** How did the MFC [1] turn out when `CCCCCCCCCCCCCCCCCCCC[N+](C)(C)CCOP(=O)([O-])OCC` was run?
**A.** 1240 µM (≈ 592 µg/mL)

**Q.** And the MTC [2]?
**A.** >400 µM

**Q.** With `CCCCCCCCCCCC[N+](C)(C)CCCOP(=O)([O-])OCCCCCCCCCC` as the compound, how does the IC50 [3] read?
**A.** 112 µM

**Q.** And the MFC [1]?
**A.** 9.4 µM (≈ 4.62 µg/mL)

**Q.** And the IC50 [4]?
**A.** 57.7 µM

**Q.** And the MTC [2]?
**A.** 100 µM
